Here are results for 4 molecules from publication PMC2848536 (Journal of medicinal chemistry, 2010).

“Also recorded” adds a separate entry of the source.

Assay [1] has as its system actin cytoskeleton of HeLa cells. Description: HeLa cell microfilament. The format is cell-based, human. To be noted: 24 h, result in words.
For assay [2], the system named is HCT-116 cells. As to conditions: read-out: IC50 against HCT-116 cells, cytotoxicity; cited from earlier work.
Assay [3] concerns microfilaments. To be noted: result in words; cited from earlier work.

Take `C=C1C[C@H](C)C(=O)N[C@@H](C)C(=O)N(C)[C@H](Cc2c(Br)[nH]c3ccccc23)C(=O)N[C@@H](c2ccc(O)cc2)CC(=O)O[C@@H](C)C[C@@H](C)C1=O` [Compound 11, jasplakinolide B]: the “microfilament disruption at 80 nM” value in assay [1] was “without microfilament disruption; also recorded: without MF disruption; also recorded: did not exhibit microfilament-disrupting activity”.

For jasplakinolide F [Compound 4], in assay [1], the “microfilament disruption at 80 nM” value is “exhibited microfilament disruption”.

On to 18-epi-latrunculol, for which the IC50 (usually the concentration that gives 50% inhibition) in assay [2] is 2.1 µM. For the same molecule, the “MF disruption at 5 µM” value in assay [3] is listed as “without MF disruption”.

As for `C/C1=C\[C@H](C)C[C@H](C)OC(=O)C[C@H](c2ccc(O)cc2)NC(=O)[C@@H](Cc2c(Br)[nH]c3ccccc23)N(C)C(=O)[C@H](C)NC(=O)[C@@H](C)C1` [Compound 1, jasplakinolide], the “microfilament disruption at 80 nM” value in assay [1] was “exhibited microfilament disruption”.
